Test results: patent publication US11512042B2, “Enamine compounds for absorbance of electromagnetic energy” (Commonwealth Scientific and Industrial Research Organisation, priority 2015, dated 2022)

Assay: UV absorbance spectrum in solution (λmax, λcrit, extinction coefficients)
Format: physicochemical
Settings: for λcrit: critical wavelength; for E (1%, 1 cm): mass extinction coefficient; for ε: molar extinction coefficient, in M-1 cm-1 (unit assumed)
Source text: FIG. 1 is a graphical representation of the absorbance of compounds 142 and 143 measured in a 10 mm cuvette as 0.001% solutions in methanol (142 is the uppermost trace at peak point of approximately 330 nm); The synthesised benzoyl functionalised compounds and their spectroscopic properties can be seen in table 2 wherein; breakthrough denotes the value in nm where transmittance increases beyond 1%; steepness refers to the distance in nm over which transmittance increases from 1 to 80% (a higher value indicates a less steep transition from absorbing to transmitting and is generally unfavourable); and ^a denotes an average of multiple measurements. As a general comment, it can be noted that the benzoyl substituted compounds gave similar absorbance maxima to the corresponding trifluoroacetyl derivative.

For C=CCN(/C=C(\C(=O)C(F)(F)F)c1ccccc1)c1ccccc1 [Compound 172], the λmax was 331 nm, the λcrit was 365 nm and the “E (1%, 1 cm)” value was 673. The ε was 22290.
With CCCCC(CC)COc1ccc(N(/C=C(\C(=O)C(F)(F)F)c2ccccc2)CC)cc1 (stereo not shown) [Compound 220] the λmax was 332 nm, the λcrit was 371 nm and the “E (1%, 1 cm)” value was 532. The ε was 23819.
In the case of O=C(/C(=C\N1CCN(/C=C(/C(=O)C(F)(F)F)c2ccccc2)CC1)c1ccccc1)C(F)(F)F [Compound 195], the λmax is reported as 339 nm, the λcrit is reported as 360 nm and the “E (1%, 1 cm)” value is reported as 689. The ε was 33248.
With O=C(/C(=C\N1CCCc2ccccc21)c1ccccc1)C(F)(F)F [Compound 163] the λmax was 354 nm, the λcrit was 383 nm and the “E (1%, 1 cm)” value was 811. It also gave a ε of 26848.
For CCOc1ccc(/C(=C/N(CC)c2ccccc2)C(=O)C(F)(F)F)cc1 [Compound 197], the λmax was 335 nm, the λcrit was 369 nm and the “E (1%, 1 cm)” value was 1166. The ε was 42359.
With CN(/C=C(\C(=O)C(F)(F)F)c1ccccc1)c1ccc([N+](=O)[O-])cc1 [Compound 219] the λmax was 376 nm, the λcrit was 391 nm and the “E (1%, 1 cm)” value was 710. The ε was 24860.
For CCCN(/C=C(\C(=O)C(F)(F)F)c1ccccc1)c1ccc(N(/C=C(\C(=O)C(F)(F)F)c2ccccc2)CCC)cc1 [Compound 196], the λmax was 344 nm, the λcrit was 378 nm and the “E (1%, 1 cm)” value was 714. For the same molecule, the ε was 41997.
For CCN(/C=C(\C(=O)C(F)(F)F)c1ccccc1)c1cccc(Br)c1 [Compound 225], the λmax was 332 nm, the λcrit was 366 nm and the “E (1%, 1 cm)” value was 609. The ε was 24181.
In the case of CCCCC(CC)COc1cccc(N(/C=C(\C(=O)C(F)(F)F)c2ccccc2)CC)c1 (stereo not shown) [Compound 221], the λmax is reported as 332 nm, the λcrit is reported as 366 nm and the “E (1%, 1 cm)” value is reported as 490. The ε was 21876.
In the case of O=C(/C(=C\N1CCOCC1)c1ccccc1)C(F)(F)F [Compound 209], the λmax is reported as 320 nm, the λcrit is reported as 351 nm and the “E (1%, 1 cm)” value is reported as 855. The ε was 24356.
In the case of O=C(/C(=C\N1CCCN(/C=C(/C(=O)C(F)(F)F)c2ccccc2)CC1)c1ccccc1)C(F)(F)F [Compound 210], the λmax is reported as 326 nm, the λcrit is reported as 356 nm and the “E (1%, 1 cm)” value is reported as 819. For the same molecule, the ε was 40611.
With O=C(/C(=C\N1CCc2cc([N+](=O)[O-])ccc21)c1ccccc1)C(F)(F)F [Compound 206] the λmax was 398 nm, the λcrit was 396 nm and the “E (1%, 1 cm)” value was 1390. For the same molecule, the ε was 50315.
With O=C(/C(=C\N1CCCCC1)c1ccccc1)C(F)(F)F [Compound 192] the λmax was 322 nm, the λcrit was 353 nm and the “E (1%, 1 cm)” value was 884. It also gave a ε of 25028.
For Cc1ccccc1N(/C=C(\C(=O)C(F)(F)F)c1ccccc1)c1ccccc1 [Compound 223], the λmax was 344 nm, the λcrit was 377 nm and the “E (1%, 1 cm)” value was 679. It also gave a ε of 25885.
With Cc1ccc2c(c1)CCN2/C=C(\C(=O)C(F)(F)F)c1ccccc1 [Compound 205] the λmax was 371 nm, the λcrit was 391 nm and the “E (1%, 1 cm)” value was 1108. For the same molecule, the ε was 36692.
In the case of O=C(/C(=C\N1CCc2cc(F)ccc21)c1ccccc1)C(F)(F)F [Compound 198], the λmax is reported as 368 nm, the λcrit is reported as 389 nm and the “E (1%, 1 cm)” value is reported as 890. It also gave a ε of 29804.
In the case of CC1CCc2ccccc2N1/C=C(\C(=O)C(F)(F)F)c1ccccc1 (stereo not shown) [Compound 211], the λmax is reported as 350 nm, the λcrit is reported as 380 nm and the “E (1%, 1 cm)” value is reported as 837. For the same molecule, the ε was 28907.
With CCN(/C=C(\C(=O)C(F)(F)F)c1ccccc1)CCOC(=O)c1ccc2c(c1)CCN2/C=C(\C(=O)C(F)(F)F)c1ccccc1 [Compound 226] the λmax was 374 nm, the λcrit was 388 nm and the “E (1%, 1 cm)” value was 685. The ε was 43151.
For O=C(/C(=C\N1CCCC1)c1ccccc1)C(F)(F)F [Compound 193], the λmax was 323 nm, the λcrit was 354 nm and the “E (1%, 1 cm)” value was 769. The ε was 20673.
In the case of CCN(/C=C(\C(=O)C(F)(F)C(F)(F)C(F)(F)C(=O)/C(=C\N(CC)c1ccccc1)c1ccccc1)c1ccccc1)c1ccccc1 [Compound 190], the λmax is reported as 330 nm, the λcrit is reported as 370 nm and the “E (1%, 1 cm)” value is reported as 616. The ε was 40027.
For O=C(/C(=C\N1CCCCc2ccccc21)c1ccccc1)C(F)(F)F [Compound 217], the λmax was 324 nm, the λcrit was 359 nm and the “E (1%, 1 cm)” value was 843. It also gave a ε of 29114.
For CCN(/C=C(\C(=O)C(F)(F)F)c1ccccc1)c1ccc(Br)cc1 [Compound 216], the λmax was 332 nm, the λcrit was 367 nm and the “E (1%, 1 cm)” value was 651. It also gave a ε of 25865.
In the case of O=C(/C(=C\N(Cc1ccccc1)c1ccccc1)c1ccccc1)C(F)(F)F [Compound 162], the λmax is reported as 329 nm, the λcrit is reported as 365 nm and the “E (1%, 1 cm)” value is reported as 620. The ε was 23495.
For Cc1cccc2c1N(/C=C(\C(=O)C(F)(F)F)c1ccccc1)CC2 [Compound 199], the λmax was 360 nm, the λcrit was 386 nm and the “E (1%, 1 cm)” value was 975. For the same molecule, the ε was 32273.
For CCN(/C=C(\C(=O)C(F)(F)F)c1ccccc1)c1cccc(C)c1 [Compound 186], the λmax was 331 nm, the λcrit was 367 nm and the “E (1%, 1 cm)” value was 709. For the same molecule, the ε was 23605.
In the case of CCN(/C=C(\C(=O)C(F)(F)F)c1ccccc1)c1ccccc1C [Compound 177], the λmax is reported as 320 nm, the λcrit is reported as 354 nm and the “E (1%, 1 cm)” value is reported as 707. It also gave a ε of 23543.
In the case of CCN(/C=C(\C(=O)C(F)(F)F)c1ccccc1)c1cccc2ccccc12 [Compound 189], the λmax is reported as 324 nm, the λcrit is reported as 357 nm and the “E (1%, 1 cm)” value is reported as 634. It also gave a ε of 23400.
For O=C(/C(=C\N1CCc2ccc([N+](=O)[O-])cc21)c1ccccc1)C(F)(F)F [Compound 202], the λmax was 355 nm, the λcrit was 387 nm and the “E (1%, 1 cm)” value was 903. For the same molecule, the ε was 32693.
With O=C(/C(=C\N1CCc2cc(Br)ccc21)c1ccccc1)C(F)(F)F [Compound 214] the λmax was 371 nm, the λcrit was 390 nm and the “E (1%, 1 cm)” value was 994. For the same molecule, the ε was 39265.
For O=C(/C(=C\N1CCc2ccccc2C1)c1ccccc1)C(F)(F)F [Compound 194], the λmax was 321 nm, the λcrit was 352 nm and the “E (1%, 1 cm)” value was 687. The ε was 22743.
For CCN(CCOC(=O)c1ccc2c(c1)CCN2/C=C(\C(=O)C(F)(F)F)c1ccccc1)C(=O)OC(C)(C)C [Compound 218], the λmax was 375 nm, the λcrit was 391 nm and the “E (1%, 1 cm)” value was 833. For the same molecule, the ε was 44357.
